The source of these data is the OligoGym collection.

The series has as its target SOD1. The following applies: ASO.

“And” between values parts separate entries of the source, which are not always exact repeats. Equal entries are not always repeated. After the bases stand the sugars from the 5' end (letter, count) and the backbone: PS all phosphorothioate, else s phosphorothioate and o phosphodiester by linkage. Methylation of C is not given here. e = 2'-O-(2-methoxyethyl) (MOE); k = constrained ethyl (cEt); d = 2'-deoxy (DNA)

For “ATCTGTGATTTAAGTCT (sugars e2 k2 d8 k2 e3, PS)”, the target mRNA inhibition (HepG2, 5 µM) was found to be 35%. The sequence “ATCTTCCAAGTGATCAT (sugars e2 k2 d8 k2 e3, PS)” returned a target mRNA inhibition (HepG2, 5 µM) of 38%.

“ATGATGCCCTGCACTGGGCC (sugars e5 d10 e5, PS)”: the target mRNA inhibition (HepG2, 4 µM) is 20%. Sequence “ATGCCTCTCTTCATCCT (sugars e3 k2 d7 k2 e3, PS)” returned a target mRNA inhibition (HepG2, 3 µM) of 0%.

Turning to “ATGTTTATCAGGATACA (sugars eeeeddddddddkekee, linkages s1 o2 s9 o2 s2)”, the target mRNA inhibition (A431, 0.062 µM) turned out to be 12%; the target mRNA inhibition (A431, 0.185 µM) was determined as 19%; the target mRNA inhibition (A431, 0.556 µM) came out at 29%; the target mRNA inhibition (A431, 1.667 µM) was determined as 38%; the target mRNA inhibition (A431, 5 µM) was 51% and 50%; the target mRNA inhibition (A431, 15 µM) came out at 61%. The target mRNA inhibition turned out to be 15% (SH-SY5Y, 0.062 µM); 27% (SH-SY5Y, 0.185 µM); 52% (SH-SY5Y, 0.556 µM); 63% (SH-SY5Y, 1.667 µM); 79% (SH-SY5Y, 5 µM); 92% (SH-SY5Y, 15 µM). Turning to “ATGTTTATTGGGCGATC (sugars e2 k2 d9 k2 e2, PS)”, the target mRNA inhibition (HepG2, 4 µM) came out at 64%. Turning to “ATTCACAGGCTTGAATG (sugars e3 k2 d7 k2 e3, PS)”, the target mRNA inhibition (HepG2, 3 µM) came out at 11%. As to “ATTGAAACAGACATTTTAAC (sugars e5 d10 e5, PS)”, the target mRNA inhibition (HepG2, 5 µM) was 0%. “ATTTCTACAGCTAGCAG (sugars e3 k2 d7 k2 e3, PS)”: under “HepG2, 3 µM”, the target mRNA inhibition was found to be 45%.

On to “ATTTCTACAGCTAGCAGGAT (sugars e5 d10 e5, PS)”, for which the target mRNA inhibition by setting is: (HepG2, 4 µM) 69%; (HepG2, 12 µM) 82%. In the case of “CAAATCTTCCAAGTGAT (sugars e3 k2 d7 k2 e3, PS)”, the target mRNA inhibition (HepG2, 3 µM) was 18%.

Sequence “CAAGGGAATGTTTATTG (sugars e3 k2 d7 k2 e3, PS)” returned a target mRNA inhibition (HepG2, 3 µM) of 19%. Regarding “CAAGTTTAATACCCATC (sugars e2 k2 d9 k2 e2, PS)”, where the note is “HepG2, 5 µM”, the target mRNA inhibition was determined as 62%. On to “CAATTACACCACAAGCC (sugars e3 k2 d7 k2 e3, PS)”, for which the target mRNA inhibition (HepG2, 3 µM) worked out at 33%.

“CACAGGCTTGAATGACA (sugars e2 k2 d8 k2 e3, PS)” displayed a target mRNA inhibition (HepG2, 5 µM) of 34%. Still for that read-out and setting: as for “CACAGGCTTGAATGACA (sugars e2 k2 d9 k2 e2, PS)”, the figure is 47%. Consider “CACCACAAGCCAAACGA (sugars e2 k2 d9 k2 e2, PS)”, for which the target mRNA inhibition (HepG2, 4 µM) stood at 46%. Take “CACCGTGTTTTCTGGATAGA (sugars e5 d10 e5, PS)”: the target mRNA inhibition (HepG2, 5 µM) is 24% and 11%. In turn, “CACTACAGGTACTTTAA (sugars e2 k2 d9 k2 e2, PS)” yielded a target mRNA inhibition (HepG2, 5 µM) of 38%. The same measure, in the same setting: as for “CACTTTTAAGATTACAG (sugars e2 k2 d8 k2 e3, PS)”, the figure is 37%. “CAGCTAGCAGGATAACA (sugars e2 k2 d8 k2 e3, PS)” displayed a target mRNA inhibition (HepG2, 4 µM) of 71%. Still for that read-out and setting: as for “CAGCTAGCAGGATAACA (sugars e2 k2 d9 k2 e2, PS)”, the figure is 61%. In the case of “CAGGATACATTTCTACAGCT (sugars e5 d10 e5, linkages s1 o3 s11 o2 s2)”, the target mRNA inhibition by setting is: (A431, 0.062 µM) 33%; (A431, 0.185 µM) 29%; (A431, 0.556 µM) 52%; (A431, 0.6 µM) 50%; (A431, 1.667 µM) 62%; (A431, 5 µM) 74%. Further, the target mRNA inhibition runs as follows: (A431, 15 µM) 82%; (SH-SY5Y, 0.062 µM) 10%; (SH-SY5Y, 0.185 µM) 10%; (SH-SY5Y, 0.556 µM) 33%; (SH-SY5Y, 1.667 µM) 61%; (SH-SY5Y, 5 µM) 81%. Moreover, the target mRNA inhibition (SH-SY5Y, 15 µM) came out at 92%. “CAGTCCTTTAATGCTTCCCC (sugars e5 d10 e5, PS)”: the target mRNA inhibition (HepG2, 5 µM) is 51% and 40%. On the same count and under the same terms, as for “CAGTGTGCGGCCAATGATGC (sugars e5 d10 e5, PS)”, the figure is 0%. Turning to “CAGTGTTTAATGTTTA (sugars kekeddddddddekek, linkages s1 o3 s8 o1 s2)”, the target mRNA inhibition by setting is: (A431, 0.12 µM) 19%; (A431, 0.6 µM) 18%; (A431, 3 µM) 36%; (A431, 15 µM) 55%; (HepG2, 0.222 µM) 50%; (HepG2, 0.667 µM) 67%. Moreover, the target mRNA inhibition is, setting by setting: (HepG2, 2 µM) 81%; (HepG2, 6 µM) 86%. For “CATAATAAGTGCCATAC (sugars e2 k2 d9 k2 e2, PS)”, under “HepG2, 5 µM”, the target mRNA inhibition was 34%. On the same count and under the same terms, as for “CATCGGCCACACCATCTTTG (sugars e5 d10 e5, PS)”, the figure is 34% and 38%; as for “CATCTGTGATTTAAGTC (sugars e2 k2 d9 k2 e2, PS)”, 48%; as for “CATCTGTGATTTAAGTCTGG (sugars e5 d10 e5, PS)”, 29%. Sequence “CATGGAATCCATGCAGG (sugars e3 k2 d7 k2 e3, PS)” yielded a target mRNA inhibition (HepG2, 3 µM) of 14%. Where the note is “HepG2, 5 µM”, “CATGGACCACCAGTGTGCGG (sugars e5 d10 e5, PS)” displayed a target mRNA inhibition of 25%.

As to “CATTTCCACCTTTGCCC (sugars e3 k2 d7 k2 e3, PS)”, where the note is “HepG2, 3 µM”, the target mRNA inhibition is 73%. For “CATTTCTACAGCTAGCA (sugars e3 k2 d7 k2 e3, PS)”, the target mRNA inhibition (HepG2, 3 µM) came to 34%. In turn, “CCAAGTGATCATAAATC (sugars e2 k2 d9 k2 e2, PS)” registered a target mRNA inhibition (HepG2, 5 µM) of 48%.

Where the note is “HepG2, 5 µM”, “CCATACAGGGTTTTTAT (sugars e2 k2 d8 k2 e3, PS)” registered a target mRNA inhibition of 13%.

“CCCAAGTCATCTGCTTT (sugars e3 k2 d7 k2 e3, PS)” came in with a target mRNA inhibition (HepG2, 3 µM) of 72%. For the sequence “CCCATCTGTGATTTAAG (sugars e2 k2 d8 k2 e3, PS)”, the target mRNA inhibition (HepG2, 5 µM) is 49%. Turning to “CCCCACACCTTCACTGG (sugars e3 k2 d7 k2 e3, PS)”, where the note is “HepG2, 3 µM”, the target mRNA inhibition worked out at 14%.

Sequence “CCGAGGACTGCAACGGAAAC (sugars e5 d10 e5, PS)” had a target mRNA inhibition (HepG2, 4 µM) of 29%. In turn, “CCGCGACTACTTTATAG (sugars e3 k2 d7 k2 e3, PS)” returned a target mRNA inhibition (HepG2, 3 µM) of 5%.

As to “CCGTCGCCCTTCAGCACGCA (sugars e5 d10 e5, PS)”, the target mRNA inhibition is, setting by setting: (A431, 0.12 µM) 0% and 5%; (A431, 0.6 µM) 7% and 0%; (A431, 3 µM) 17% and 0% and 7%; (HepG2, 0.1875 µM) 0% and 3%; (HepG2, 0.222 µM) 0% and 14%. For the sequence “CCTCATAATAAGTGCCA (sugars e2 k2 d8 k2 e3, PS)”, the target mRNA inhibition (HepG2, 5 µM) was 29%. On the same count and under the same terms, the value for “CCTCATAATAAGTGCCATAC (sugars e5 d10 e5, PS)” was 23%. Under “HepG2, 3 µM”, “CCTTCTGCTCGAAATTGATG (sugars e5 d10 e5, PS)” displayed a target mRNA inhibition of 53%. “CCTTTAATGCTTCCCCACAC (sugars e5 d10 e5, PS)”: the target mRNA inhibition (HepG2, 4 µM) is 1%. The sequence “CGACTACTTTATAGGCC (sugars e3 k2 d7 k2 e3, PS)” gave a target mRNA inhibition (HepG2, 3 µM) of 12%.

Consider “CGATCCCAATTACACCA (sugars e2 k2 d8 k2 e3, PS)”, for which, where the note is “HepG2, 4 µM”, the target mRNA inhibition worked out at 57%. For the setting “HepG2, 3 µM”, “CGATCCCAATTACACCA (sugars e3 k2 d7 k2 e3, PS)” registered a target mRNA inhibition of 12%.

In turn, “CGCCCTTCAGCACGCACACG (sugars e5 d10 e5, PS)” showed a target mRNA inhibition (HepG2, 0.1875 µM) of 0%; a target mRNA inhibition (HepG2, 0.75 µM) of 2%; a target mRNA inhibition (HepG2, 3 µM) of 28%; a target mRNA inhibition (HepG2, 4 µM) of 23%; a target mRNA inhibition (HepG2, 12 µM) of 92%. In the case of “CGTCGCCCTTCAGCACG (sugars e2 k2 d8 k2 e3, PS)”, the target mRNA inhibition (HepG2, 4 µM) was found to be 52%. In turn, “CTACAGGTACTTTAAAG (sugars e2 k2 d8 k2 e3, PS)” had a target mRNA inhibition (HepG2, 5 µM) of 2%.

“CTCACTACAGGTACTTT (sugars e2 k2 d8 k2 e3, PS)” had a target mRNA inhibition (HepG2, 5 µM) of 40%. Still for that read-out and setting: the value for “CTCACTACAGGTACTTTAAA (sugars e5 d10 e5, PS)” was 25%; that for “CTCATAATAAGTGCCAT (sugars e2 k2 d8 k2 e3, PS)” was 30%. Under “HepG2, 4 µM”, “CTCCGCGACTACTTTATAGG (sugars e5 d10 e5, PS)” gave a target mRNA inhibition of 27%. Same read-out and setting: the value for “CTCCGCGCCTCGCCCACTCT (sugars e5 d10 e5, PS)” was 40%. On to “CTCTCTTCATCCTTTGG (sugars e3 k2 d7 k2 e3, PS)”, for which the target mRNA inhibition (HepG2, 3 µM) is 2%.

With “CTGGCAAAATACAGGTC (sugars e2 k2 d8 k2 e3, PS)”, the target mRNA inhibition (HepG2, 5 µM) was determined as 25%.

With “CTGTATTATCTCCAAACTCA (sugars e5 d10 e5, PS)”, the target mRNA inhibition (HepG2, 5 µM) was 32% and 28%. Take “CTTCAATAGACACATCGGCC (sugars e5 d10 e5, PS)”: the target mRNA inhibition (HepG2, 5 µM) is 39% and 16%. For the sequence “CTTCCCCACACCTTCA (sugars kekeddddddddekek, linkages s1 o3 s8 o1 s2)”, the target mRNA inhibition reads like this: (A431, 0.12 µM) 0%; (A431, 0.6 µM) 8%; (A431, 3 µM) 8%; (A431, 15 µM) 18%; (HepG2, 0.222 µM) 8%; (HepG2, 0.667 µM) 14%. Moreover, the target mRNA inhibition reads like this: (HepG2, 2 µM) 51%; (HepG2, 6 µM) 76%. Sequence “CTTTGGCCCACCGTGTT (sugars e3 k2 d7 k2 e3, PS)” had a target mRNA inhibition (HepG2, 3 µM) of 41%. Under “HepG2, 5 µM”, “CTTTTAATAGCCTCATA (sugars e2 k2 d8 k2 e3, PS)” showed a target mRNA inhibition of 45%. On the same count and under the same terms, the value for “CTTTTAATAGCCTCATA (sugars e2 k2 d9 k2 e2, PS)” was 34%; that for “GACACATCGGCCACACCATC (sugars e5 d10 e5, PS)” was 45% and 30%.
